Experimental data: ChEMBL document CHEMBL2413072, “Synthesis and in vitro anticancer studies of novel C-2 arylidene congeners of lantadenes” (2013)

How the values were obtained:
Type in all cases: functional
SK-MEL-2 [1] = experiment: Growth inhibition of human SK-MEL-2 cells by sulforhodamine B assay
[2] = Growth inhibition of human NCI-ADR-RES cells assessed as cell growth at 10^-4 M by sulforhodamine B assay; conditions: read-out: Activity
SK-OV-3 = experiment: Growth inhibition of human SKOV3 cells by sulforhodamine B assay
SK-MEL-2 [3] = experiment: Growth inhibition of human SK-MEL-2 cells assessed as cell growth at 10^-8 M by sulforhodamine B assay; conditions: read-out: Activity
DU-145 = experiment: Growth inhibition of human DU145 cells assessed as cell growth at 10^-4 M by sulforhodamine B assay; conditions: read-out: Activity
KM12 = experiment: Growth inhibition of human KM12 cells assessed as cell growth at 10^-7 M by sulforhodamine B assay; conditions: read-out: Activity
A498 = experiment: Growth inhibition of human A498 cells assessed as cell growth at 10^-4 M by sulforhodamine B assay; conditions: read-out: Activity
UO-31 = experiment: Growth inhibition of human UO31 cells assessed as cell growth at 10^-7 M by sulforhodamine B assay; conditions: read-out: Activity
NCI-H226 = experiment: Growth inhibition of human NCI-H226 cells by sulforhodamine B assay
[4] = Growth inhibition of human HCC2998 cells assessed as cell growth at 10^-4 M by sulforhodamine B assay; conditions: HCC 2998, read-out: Activity
HL-60(TB) = experiment: Growth inhibition of human HL-60(TB) cells assessed as cell growth at 10^-6 M by sulforhodamine B assay; conditions: read-out: Activity
LOX IMVI [5] = experiment: Growth inhibition of human LOXIMVI cells assessed as cell growth at 10^-8 M by sulforhodamine B assay; conditions: read-out: Activity
MCF7 = experiment: Growth inhibition of human MCF7 cells assessed as cell growth at 10^-7 M by sulforhodamine B assay; conditions: read-out: Activity
MDA-MB-435 = experiment: Growth inhibition of human MDA-MB-435 cells assessed as cell growth at 10^-8 M by sulforhodamine B assay; conditions: read-out: Activity
CCRF-CEM = experiment: Growth inhibition of human CCRF-CEM cells assessed as cell growth at 10^-4 M by sulforhodamine B assay; conditions: read-out: Activity
HCT-15 = experiment: Growth inhibition of human HCT15 cells assessed as cell growth at 10^-4 M by sulforhodamine B assay; conditions: read-out: Activity
HCT-116 = experiment: Growth inhibition of human HCT116 cells assessed as cell growth at 10^-6 M by sulforhodamine B assay; conditions: read-out: Activity
Malme-3M = experiment: Growth inhibition of human MALME-3M cells assessed as cell growth at 10^-7 M by sulforhodamine B assay; conditions: read-out: Activity
NCI-H522 [6] = experiment: Growth inhibition of human NCI-H522 cells by sulforhodamine B assay
CAKI-1 = experiment: Growth inhibition of human CAKI-1 cells assessed as cell growth at 10^-7 M by sulforhodamine B assay; conditions: read-out: Activity
RXF 393 = experiment: Growth inhibition of human RXF393 cells assessed as cell growth at 10^-6 M by sulforhodamine B assay; conditions: read-out: Activity
LOX IMVI [7] = experiment: Growth inhibition of human LOXIMVI cells assessed as cell growth at 10^-4 M by sulforhodamine B assay; conditions: read-out: Activity
BT-549 = experiment: Growth inhibition of human BT549 cells assessed as cell growth at 10^-4 M by sulforhodamine B assay; conditions: read-out: Activity
IGROV-1 = experiment: Growth inhibition of human IGROV1 cells by sulforhodamine B assay
SK-MEL-2 [8] = experiment: Growth inhibition of human SK-MEL-2 cells assessed as cell growth at 10^-4 M by sulforhodamine B assay; conditions: read-out: Activity
LOX IMVI [9] = experiment: Growth inhibition of human LOXIMVI cells assessed as cell growth at 10^-7 M by sulforhodamine B assay; conditions: read-out: Activity
SR = experiment: Growth inhibition of human SR cells assessed as cell growth at 10^-6 M by sulforhodamine B assay; conditions: read-out: Activity
ACHN = experiment: Growth inhibition of human ACHN cells assessed as cell growth at 10^-4 M by sulforhodamine B assay; conditions: read-out: Activity
RPMI-8226 = experiment: Growth inhibition of human RPMI8226 cells assessed as cell growth at 10^-8 M by sulforhodamine B assay; conditions: read-out: Activity
MDA-MB-231 = experiment: Growth inhibition of human MDA-MB-231 cells assessed as cell growth at 10^-6 M by sulforhodamine B assay; conditions: read-out: Activity
NCI-H522 [10] = experiment: Growth inhibition of human NCI-H522 cells assessed as cell growth at 10^-8 M by sulforhodamine B assay; conditions: read-out: Activity
MDA-MB-468 = experiment: Growth inhibition of human MDA-MB-468 cells assessed as cell growth at 10^-7 M by sulforhodamine B assay; conditions: read-out: Activity
M14 = experiment: Growth inhibition of human M14 cells assessed as cell growth at 10^-7 M by sulforhodamine B assay; conditions: read-out: Activity
[11] = read-out: LC50 (the source's name)
[12] = read-out: pLC50 (the source's name) (converted)

CC1(C)C[C@@H](O)[C@]2(C(=O)O)CC[C@]3(C)C(=CC[C@@H]4[C@@]5(C)C/C(=C\C=C\c6ccccc6)C(=O)C(C)(C)[C@@H]5CC[C@]43C)[C@@H]2C1
GI50 (SK-MEL-2 [1]; read-out: GI50): 2.35 µM
CC50 (SK-MEL-2 [1]; [11]): 26.3 µM
TGI (SK-MEL-2 [1]; read-out: TGI): 5.57 µM
GI50 (SK-MEL-2 [1]; read-out: pGI50 (converted)): 2.34 µM
CC50 (SK-MEL-2 [1]; [12]): 26.3 µM
TGI (SK-MEL-2 [1]; read-out: pTGI (converted)): 5.62 µM
growth at 100 µM [2]: -87%
GI50 (SK-OV-3; read-out: GI50): 3.81 µM
CC50 (SK-OV-3; [11]): 46.4 µM
TGI (SK-OV-3; read-out: TGI): 14.8 µM
GI50 (SK-OV-3; read-out: pGI50 (converted)): 3.8 µM
CC50 (SK-OV-3; [12]): 46.8 µM
TGI (SK-OV-3; read-out: pTGI (converted)): 14.8 µM
growth at 0.01 µM (SK-MEL-2 [3]): 86%
growth at 100 µM (DU-145): -92%
growth at 0.1 µM (KM12): 99%
growth at 100 µM (A498): -97%
growth at 0.1 µM (UO-31): 94%
GI50 (NCI-H226; read-out: GI50): 2.78 µM
LC50 (NCI-H226; read-out: LC50): 56.2 µM
TGI (NCI-H226; read-out: TGI): 12.8 µM
GI50 (NCI-H226; read-out: pGI50 (converted)): 2.75 µM
LC50 (NCI-H226; read-out: pLC50 (converted)): 56.2 µM
TGI (NCI-H226; read-out: pTGI (converted)): 12.9 µM
growth at 100 µM [4]: -93%
growth at 1 µM (HL-60(TB)): 112%
growth at 0.01 µM (LOX IMVI [5]): 97%
growth at 0.1 µM (MCF7): 92%
growth at 0.01 µM (MDA-MB-435): 98%
growth at 100 µM (CCRF-CEM): -19%
growth at 100 µM (HCT-15): -80%
growth at 1 µM (HCT-116): 90%
growth at 0.1 µM (Malme-3M): 93%
GI50 (NCI-H522 [6]; read-out: GI50): 2.46 µM
CC50 (NCI-H522 [6]; [11]): 29.4 µM
TGI (NCI-H522 [6]; read-out: TGI): 6.9 µM
GI50 (NCI-H522 [6]; read-out: pGI50 (converted)): 2.45 µM
CC50 (NCI-H522 [6]; [12]): 29.5 µM
TGI (NCI-H522 [6]; read-out: pTGI (converted)): 6.92 µM
growth at 0.1 µM (CAKI-1): 97%
growth at 1 µM (RXF 393): 96%
growth at 100 µM (LOX IMVI [7]): -90%
growth at 100 µM (BT-549): -72%
GI50 (IGROV-1; read-out: GI50): 4.14 µM
CC50 (IGROV-1; [11]): 73.8 µM
TGI (IGROV-1; read-out: TGI): 14.4 µM
GI50 (IGROV-1; read-out: pGI50 (converted)): 4.17 µM
CC50 (IGROV-1; [12]): 74.1 µM
TGI (IGROV-1; read-out: pTGI (converted)): 14.5 µM
growth at 100 µM (SK-MEL-2 [8]): -72%
growth at 0.1 µM (LOX IMVI [9]): 95%
growth at 1 µM (SR): 94%
growth at 100 µM (ACHN): -93%
growth at 0.01 µM (RPMI-8226): 98%
growth at 1 µM (MDA-MB-231): 92%
growth at 0.01 µM (NCI-H522 [10]): 89%
growth at 0.1 µM (MDA-MB-468): 96%
growth at 0.1 µM (M14): 95%

CC(C)=CC(=O)O[C@@H]1CC(C)(C)C[C@H]2C3=CC[C@@H]4[C@@]5(C)CCC(=O)C(C)(C)[C@@H]5CC[C@@]4(C)[C@]3(C)CC[C@@]12C(=O)O
GI50 (SK-MEL-2 [1]; read-out: GI50): 3.48 µM
CC50 (SK-MEL-2 [1]; [11]): 61.3 µM
TGI (SK-MEL-2 [1]; read-out: TGI): 16.9 µM
GI50 (SK-MEL-2 [1]; read-out: pGI50 (converted)): 3.47 µM
CC50 (SK-MEL-2 [1]; [12]): 61.7 µM
TGI (SK-MEL-2 [1]; read-out: pTGI (converted)): 17 µM
growth at 100 µM [2]: 14%
GI50 (SK-OV-3; read-out: GI50): 16.6 µM
CC50 (SK-OV-3; [11]): > 100 µM
TGI (SK-OV-3; read-out: TGI): > 100 µM
GI50 (SK-OV-3; read-out: pGI50 (converted)): 16.6 µM
CC50 (SK-OV-3; [12]): > 100 µM
TGI (SK-OV-3; read-out: pTGI (converted)): > 100 µM
growth at 0.01 µM (SK-MEL-2 [3]): 94%
growth at 100 µM (DU-145): -51%
growth at 0.1 µM (KM12): 85%
growth at 100 µM (A498): -44%
growth at 0.1 µM (UO-31): 91%
GI50 (NCI-H226; read-out: GI50): 5.68 µM
LC50 (NCI-H226; read-out: LC50): > 100 µM
TGI (NCI-H226; read-out: TGI): > 100 µM
GI50 (NCI-H226; read-out: pGI50 (converted)): 5.62 µM
LC50 (NCI-H226; read-out: pLC50 (converted)): > 100 µM
TGI (NCI-H226; read-out: pTGI (converted)): > 100 µM
growth at 100 µM [4]: -68%
growth at 1 µM (HL-60(TB)): 94%
growth at 0.01 µM (LOX IMVI [5]): 98%
growth at 0.1 µM (MCF7): 90%
growth at 0.01 µM (MDA-MB-435): 99%
growth at 100 µM (CCRF-CEM): -14%
growth at 100 µM (HCT-15): -34%
growth at 1 µM (HCT-116): 70%
growth at 0.1 µM (Malme-3M): 90%
GI50 (NCI-H522 [6]; read-out: GI50): 3.14 µM
CC50 (NCI-H522 [6]; [11]): > 100 µM
TGI (NCI-H522 [6]; read-out: TGI): 29.4 µM
GI50 (NCI-H522 [6]; read-out: pGI50 (converted)): 3.16 µM
CC50 (NCI-H522 [6]; [12]): > 100 µM
TGI (NCI-H522 [6]; read-out: pTGI (converted)): 29.5 µM
growth at 0.1 µM (CAKI-1): 93%
growth at 1 µM (RXF 393): 85%
growth at 100 µM (LOX IMVI [7]): -47%
growth at 100 µM (BT-549): -47%
GI50 (IGROV-1; read-out: GI50): 5.36 µM
CC50 (IGROV-1; [11]): > 100 µM
TGI (IGROV-1; read-out: TGI): 38.4 µM
GI50 (IGROV-1; read-out: pGI50 (converted)): 5.37 µM
CC50 (IGROV-1; [12]): > 100 µM
TGI (IGROV-1; read-out: pTGI (converted)): 38 µM
growth at 100 µM (SK-MEL-2 [8]): -69%
growth at 0.1 µM (LOX IMVI [9]): 92%
growth at 1 µM (SR): 95%
growth at 100 µM (ACHN): -31%
growth at 0.01 µM (RPMI-8226): 101%
growth at 1 µM (MDA-MB-231): 76%
growth at 0.01 µM (NCI-H522 [10]): 102%
growth at 0.1 µM (MDA-MB-468): 89%
growth at 0.1 µM (M14): 94%
